PubChem BioAssay (NCI)
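Results reflect a 48-hour exposure of cells in 96-well plates to compound at five concentrations. TGI: concentration producing complete growth inhibition.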

How the values were obtained:
Test in all cases: DTP human tumour cell line panel, 48 h
M19-MEL melanoma = tested on: M19-MEL melanoma
HCC-2998 colon = tested on: HCC-2998 colon
A498 renal = tested on: A498 renal
SK-MEL-2 melanoma = tested on: SK-MEL-2 melanoma
SK-OV-3 ovarian = tested on: SK-OV-3 ovarian
HCT-116 colon = tested on: HCT-116 colon
U251 CNS = tested on: U251 CNS
M14 melanoma = tested on: M14 melanoma
HL-60(TB) leukemia = tested on: HL-60(TB) leukemia
SF-268 CNS = tested on: SF-268 CNS
HCT-15 colon = tested on: HCT-15 colon
TK-10 renal = tested on: TK-10 renal
SR leukemia = tested on: SR leukemia
OVCAR-8 ovarian = tested on: OVCAR-8 ovarian
NCI-H522 lung = tested on: NCI-H522 lung
A549 NSCLC = tested on: A549 NSCLC
MDA-MB-435 = tested on: MDA-MB-435
HOP-92 NSCLC = tested on: HOP-92 NSCLC
COLO 205 colon = tested on: COLO 205 colon
SW-620 colon = tested on: SW-620 colon
SN12C renal = tested on: SN12C renal
MDA-MB-231 breast = tested on: MDA-MB-231 breast
SK-MEL-5 melanoma = tested on: SK-MEL-5 melanoma
786-0 renal = tested on: 786-0 renal
CCRF-CEM leukemia = tested on: CCRF-CEM leukemia
MDA-N = tested on: MDA-N
CAKI-1 renal = tested on: CAKI-1 renal
BT-549 breast = tested on: BT-549 breast
RPMI-8226 leukemia = tested on: RPMI-8226 leukemia
UACC-62 melanoma = tested on: UACC-62 melanoma
RXF 393 renal = tested on: RXF 393 renal
SF-295 CNS = tested on: SF-295 CNS
LXFL 529 NSCLC = tested on: LXFL 529 NSCLC
SNB-19 CNS = tested on: SNB-19 CNS
IGROV1 ovarian = tested on: IGROV1 ovarian
DU-145 prostate = tested on: DU-145 prostate
SK-MEL-28 melanoma = tested on: SK-MEL-28 melanoma
OVCAR-3 ovarian = tested on: OVCAR-3 ovarian
HT29 colon = tested on: HT29 colon
NCI/ADR-RES ovarian = tested on: NCI/ADR-RES ovarian
XF 498 CNS = tested on: XF 498 CNS
K-562 leukemia = tested on: K-562 leukemia
KM12 colon = tested on: KM12 colon
OVCAR-4 ovarian = tested on: OVCAR-4 ovarian
NCI-H226 lung = tested on: NCI-H226 lung
OVCAR-5 ovarian = tested on: OVCAR-5 ovarian
DLD-1 colon = tested on: DLD-1 colon
NCI-H460 lung = tested on: NCI-H460 lung
LOX IMVI melanoma = tested on: LOX IMVI melanoma
ACHN renal = tested on: ACHN renal
DMS 114 small cell lung = tested on: DMS 114 small cell lung
UACC-257 melanoma = tested on: UACC-257 melanoma
SF-539 CNS = tested on: SF-539 CNS
MCF7 breast = tested on: MCF7 breast
T-47D breast = tested on: T-47D breast
KM20L2 colon = tested on: KM20L2 colon
PC-3 prostate = tested on: PC-3 prostate
MOLT-4 leukemia = tested on: MOLT-4 leukemia
EKVX NSCLC = tested on: EKVX NSCLC
UO-31 renal = tested on: UO-31 renal
SNB-75 CNS = tested on: SNB-75 CNS
MALME-3M melanoma = tested on: MALME-3M melanoma
SNB-78 CNS = tested on: SNB-78 CNS
HOP-62 NSCLC = tested on: HOP-62 NSCLC
DMS 273 small cell lung = tested on: DMS 273 small cell lung
HOP-18 NSCLC = tested on: HOP-18 NSCLC
NCI-H23 lung = tested on: NCI-H23 lung

COc1ccc(/C=C2/C(=O)N(C(=O)c3ccccc3O)N=C2C)cc1
TGI (M19-MEL melanoma): > 100 µM
TGI (HCC-2998 colon): > 100 µM
TGI (A498 renal): 0.0747 µM
TGI (SK-MEL-2 melanoma): > 100 µM
TGI (SK-OV-3 ovarian): > 100 µM
TGI (HCT-116 colon): > 100 µM
TGI (U251 CNS): > 100 µM
TGI (M14 melanoma): > 100 µM
TGI (HL-60(TB) leukemia): 9.87 µM
TGI (SF-268 CNS): > 100 µM
TGI (HCT-15 colon): 1.24 µM
TGI (TK-10 renal): > 100 µM
TGI (SR leukemia): > 100 µM
TGI (OVCAR-8 ovarian): > 41.1 µM
TGI (NCI-H522 lung): 8.51 µM
TGI (A549 NSCLC): > 100 µM
TGI (MDA-MB-435): > 100 µM
TGI (HOP-92 NSCLC): > 100 µM
TGI (COLO 205 colon): > 89.2 µM
TGI (SW-620 colon): > 100 µM
TGI (SN12C renal): > 32 µM
TGI (MDA-MB-231 breast): > 100 µM
TGI (SK-MEL-5 melanoma): 9.56 µM
TGI (786-0 renal): > 100 µM
TGI (CCRF-CEM leukemia): > 100 µM
TGI (MDA-N): > 100 µM
TGI (CAKI-1 renal): 51 µM
TGI (BT-549 breast): 98.1 µM
TGI (RPMI-8226 leukemia): > 100 µM
TGI (UACC-62 melanoma): > 100 µM
TGI (RXF 393 renal): 1.23 µM
TGI (SF-295 CNS): > 100 µM
TGI (LXFL 529 NSCLC): > 100 µM
TGI (SNB-19 CNS): > 100 µM
TGI (IGROV1 ovarian): 0.0784 µM
TGI (DU-145 prostate): > 100 µM
TGI (SK-MEL-28 melanoma): > 100 µM
TGI (OVCAR-3 ovarian): > 30.4 µM
TGI (HT29 colon): > 100 µM
TGI (NCI/ADR-RES ovarian): 14.1 µM
TGI (XF 498 CNS): > 100 µM
TGI (K-562 leukemia): > 100 µM
TGI (KM12 colon): > 100 µM
TGI (OVCAR-4 ovarian): > 100 µM
TGI (NCI-H226 lung): 32.3 µM
TGI (OVCAR-5 ovarian): > 100 µM
TGI (DLD-1 colon): > 100 µM
TGI (NCI-H460 lung): > 100 µM
TGI (LOX IMVI melanoma): > 46.6 µM
TGI (ACHN renal): > 100 µM
TGI (DMS 114 small cell lung): 2.25 µM
TGI (UACC-257 melanoma): > 100 µM
TGI (SF-539 CNS): 2.2 µM
TGI (MCF7 breast): > 100 µM
TGI (T-47D breast): > 100 µM
TGI (KM20L2 colon): > 100 µM
TGI (PC-3 prostate): > 100 µM
TGI (MOLT-4 leukemia): > 100 µM
TGI (EKVX NSCLC): > 100 µM

CCCCCCC(O)CC[C@H]1CCC[C@@H](C)N1 (stereo partly specified)
TGI (M19-MEL melanoma): > 31.6 µM
TGI (HCC-2998 colon): > 100 µM
TGI (A498 renal): > 10 µM
TGI (SK-MEL-2 melanoma): < 10 µM
TGI (SK-OV-3 ovarian): > 100 µM
TGI (HCT-116 colon): > 100 µM
TGI (U251 CNS): > 31.6 µM
TGI (M14 melanoma): > 100 µM
TGI (UO-31 renal): > 100 µM
TGI (HL-60(TB) leukemia): > 100 µM
TGI (SF-268 CNS): > 31.6 µM
TGI (HCT-15 colon): > 31.6 µM
TGI (SNB-75 CNS): > 31.6 µM
TGI (TK-10 renal): > 100 µM
TGI (SR leukemia): > 100 µM
TGI (OVCAR-8 ovarian): < 10 µM
TGI (NCI-H522 lung): > 100 µM
TGI (A549 NSCLC): > 100 µM
TGI (HOP-92 NSCLC): > 100 µM
TGI (COLO 205 colon): > 31.6 µM
TGI (SW-620 colon): > 100 µM
TGI (SN12C renal): > 100 µM
TGI (MALME-3M melanoma): > 100 µM
TGI (SK-MEL-5 melanoma): > 100 µM
TGI (786-0 renal): < 10 µM
TGI (CCRF-CEM leukemia): > 100 µM
TGI (CAKI-1 renal): > 100 µM
TGI (RPMI-8226 leukemia): > 100 µM
TGI (UACC-62 melanoma): > 100 µM
TGI (RXF 393 renal): > 100 µM
TGI (SF-295 CNS): > 31.6 µM
TGI (LXFL 529 NSCLC): > 100 µM
TGI (SNB-19 CNS): < 10 µM
TGI (IGROV1 ovarian): > 100 µM
TGI (SNB-78 CNS): > 100 µM
TGI (SK-MEL-28 melanoma): > 31.6 µM
TGI (OVCAR-3 ovarian): < 10 µM
TGI (HT29 colon): > 31.6 µM
TGI (K-562 leukemia): > 100 µM
TGI (KM12 colon): < 10 µM
TGI (OVCAR-4 ovarian): < 10 µM
TGI (NCI-H226 lung): > 100 µM
TGI (OVCAR-5 ovarian): < 10 µM
TGI (DLD-1 colon): > 100 µM
TGI (NCI-H460 lung): > 100 µM
TGI (LOX IMVI melanoma): > 100 µM
TGI (ACHN renal): > 100 µM
TGI (HOP-62 NSCLC): > 31.6 µM
TGI (DMS 114 small cell lung): > 31.6 µM
TGI (DMS 273 small cell lung): > 100 µM
TGI (HOP-18 NSCLC): > 100 µM
TGI (UACC-257 melanoma): < 10 µM
TGI (SF-539 CNS): > 100 µM
TGI (KM20L2 colon): < 10 µM
TGI (MOLT-4 leukemia): > 100 µM
TGI (NCI-H23 lung): < 10 µM
TGI (EKVX NSCLC): > 100 µM
